pKi: −log10 of the molar value.
Tests used:
[1] = target: Adenosine A2 receptor (Homo sapiens) (UniProt P29275+P29274); test: Selectivity of adenosine A2A receptor over adenosine A2B receptor; type: protein assay
[2] = target: Adenosine receptors; A2b & A3 (Homo sapiens) (UniProt P29275+P0DMS8); test: Selectivity of adenosine A3 receptor over adenosine A2B receptor; type: protein assay
[3] = target: Adenosine receptor A2a (Homo sapiens, UniProt P29274); test: Displacement of [3H]ZM-241385 from Adenosine A2A receptor expressed in HEK cells; type: cell-based, HEK293
[4] = target: Adenosine receptors; A1 & A2b (Homo sapiens) (UniProt P30542+P29275); test: Selectivity of adenosine A1 receptor over adenosine A2B receptor; type: protein assay
[5] = target: T1, Adenosine receptor A2b (Homo sapiens, UniProt P29275); test: Displacement of [3H]ZM-241385 from Adenosine A2B receptor expressed in HEK cells; type: cell-based, HEK293
T1 sequence (P29275 whole entry): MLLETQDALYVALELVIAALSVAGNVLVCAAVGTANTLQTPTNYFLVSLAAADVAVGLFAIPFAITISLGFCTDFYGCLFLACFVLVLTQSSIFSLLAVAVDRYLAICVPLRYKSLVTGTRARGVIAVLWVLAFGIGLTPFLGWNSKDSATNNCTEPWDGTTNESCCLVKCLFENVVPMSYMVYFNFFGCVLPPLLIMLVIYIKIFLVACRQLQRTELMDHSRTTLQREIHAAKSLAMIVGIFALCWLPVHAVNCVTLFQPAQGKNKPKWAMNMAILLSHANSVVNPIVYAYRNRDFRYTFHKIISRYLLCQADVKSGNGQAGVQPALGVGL

[6] = target: T2, Adenosine receptor A3 (Homo sapiens, UniProt P0DMS8); test: Displacement of [125I]AB-MECA from Adenosine A3 receptor expressed in CHO cells; type: cell-based
T2 sequence (P0DMS8 whole entry): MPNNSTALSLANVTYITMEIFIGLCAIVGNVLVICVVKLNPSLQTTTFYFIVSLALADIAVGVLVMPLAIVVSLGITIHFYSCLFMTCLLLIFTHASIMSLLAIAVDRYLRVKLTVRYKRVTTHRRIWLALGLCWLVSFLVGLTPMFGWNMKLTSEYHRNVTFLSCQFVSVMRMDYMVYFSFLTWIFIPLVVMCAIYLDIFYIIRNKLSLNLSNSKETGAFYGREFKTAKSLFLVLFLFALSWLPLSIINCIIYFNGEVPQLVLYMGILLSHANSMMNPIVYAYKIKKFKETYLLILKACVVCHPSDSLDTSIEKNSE

[7] = target: T3, Adenosine receptor A1 (Homo sapiens, UniProt P30542); test: Displacement of [3H]CPX from Adenosine A1 receptor expressed in CHO cells; type: cell-based
T3 sequence (P30542 whole entry): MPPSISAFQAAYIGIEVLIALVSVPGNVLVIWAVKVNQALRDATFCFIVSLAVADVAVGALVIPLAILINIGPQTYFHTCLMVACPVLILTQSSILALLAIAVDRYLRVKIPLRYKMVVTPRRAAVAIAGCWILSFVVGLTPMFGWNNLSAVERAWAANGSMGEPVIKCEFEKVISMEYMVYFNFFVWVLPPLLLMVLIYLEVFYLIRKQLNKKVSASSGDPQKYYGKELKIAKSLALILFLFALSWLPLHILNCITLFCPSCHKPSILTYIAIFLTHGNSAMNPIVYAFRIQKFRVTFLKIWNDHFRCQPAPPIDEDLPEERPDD

[8] = AUC in rat administered at 1 mg/kg; type: ADME, organism-based; design: dose 1 mg/kg; conditions: plasma
[9] = Half life in rat administered at 1 mg/kg; type: ADME, organism-based; design: dose 1 mg/kg; conditions: in vivo
[10] = Oral bioavailability in rat administered at 1 mg/kg; type: ADME, organism-based; conditions: in vivo

Sequence of Adenosine receptor A2a (P29274 whole entry): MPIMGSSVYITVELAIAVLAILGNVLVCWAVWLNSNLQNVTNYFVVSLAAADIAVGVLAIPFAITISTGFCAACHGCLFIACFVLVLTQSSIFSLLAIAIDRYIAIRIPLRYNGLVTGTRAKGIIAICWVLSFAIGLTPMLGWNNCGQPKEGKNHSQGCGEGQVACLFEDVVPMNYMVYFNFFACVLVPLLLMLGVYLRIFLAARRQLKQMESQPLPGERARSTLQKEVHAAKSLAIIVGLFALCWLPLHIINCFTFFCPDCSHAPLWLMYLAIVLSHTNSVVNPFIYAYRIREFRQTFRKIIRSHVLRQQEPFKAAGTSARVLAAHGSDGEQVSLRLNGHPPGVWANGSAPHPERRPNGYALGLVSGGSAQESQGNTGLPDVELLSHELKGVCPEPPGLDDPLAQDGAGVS
Sequence of Adenosine A2 receptor (Homo sapiens) (P29274 whole entry, looked up, one chain of several): as the sequence (P29274 whole entry) above

| Ratio Ki [1] | Ratio Ki [2] | pKi [3] | Ratio Ki [4] | pKi [5] | pKi [6] | pKi [7] | AUC [8] [ng·h/mL] | half-life [9] [h] | bioavailability [10] [%] | SMILES |
| --- | --- | --- | --- | --- | --- | --- | --- | --- | --- | --- |
| 85 | 30 | 5.74 | 47 | 7.68 | 6.20 | 6.00 |  |  |  | CCCn1c(=O)c2[nH]c(-c3cnn(Cc4noc(-c5ccccc5)n4)c3)nc2n(CCC)c1=O |
| > 37 | 22 | < 5.30 | 22 | 6.87 | 5.52 | 5.52 |  |  |  | CCCn1c(=O)c2nc(-c3cnn(Cc4noc(-c5cccc(Cl)c5)n4)c3)[nH]c2n(CCC)c1=O |
| 30 | 128 | 6.38 | 107 | 7.85 | 5.74 | 5.82 |  |  |  | CCCn1c(=O)c2[nH]c(-c3cnn(Cc4cc(-c5ccccc5)on4)c3)nc2n(CCC)c1=O |
| > 40 | 19 | < 5.30 | 32 | 6.91 | 5.64 | 5.41 |  |  |  | CCCn1c(=O)c2nc(-c3cnn(Cc4noc(-c5ccc(OC)cc5)n4)c3)[nH]c2n(CCC)c1=O |
| > 128 | > 213 | < 5.30 | 74 | 7.41 | < 5.08 | 5.54 |  |  |  | CCCn1c(=O)c2nc(-c3cnn(Cc4noc(-c5ccc(Cl)cc5)n4)c3)[nH]c2n(CCC)c1=O |
| 130 | 25 | 5.60 | 130 | 7.72 | 6.31 | 5.60 |  |  |  | CCCn1c(=O)c2nc(-c3cnn(Cc4nc(-c5ccccc5Cl)no4)c3)[nH]c2n(CCC)c1=O |
| > 38 | > 38 | < 5.30 | 27 | 6.88 | < 5.30 | 5.46 |  |  |  | CCCn1c(=O)c2nc(-c3cnn(Cc4cc(-c5cccc(OC)c5)on4)c3)[nH]c2n(CCC)c1=O |
| > 119 | 22 | < 5.30 | 83 | 7.38 | 6.02 | 5.46 |  |  |  | CCCn1c(=O)c2nc(-c3cnn(Cc4nc(-c5cccc(C(F)(F)F)c5)no4)c3)[nH]c2n(CCC)c1=O |

More lines, now with the values behind:

| SMILES | Ratio Ki [1] | Ratio Ki [2] | pKi [3] | Ratio Ki [4] | pKi [5] | pKi [6] | pKi [7] | AUC [8] [ng·h/mL] | half-life [9] [h] | bioavailability [10] [%] |
| --- | --- | --- | --- | --- | --- | --- | --- | --- | --- | --- |
| CCCn1c(=O)c2nc(-c3cnn(Cc4nc(-c5ccc(OC)cc5)no4)c3)[nH]c2n(CCC)c1=O | > 47 | 14 | < 5.30 | 28 | 6.97 | 5.82 | 5.52 |  |  |  |
| CCCn1c(=O)c2nc(-c3cnn(Cc4cc(-c5ccccc5C(F)(F)F)on4)c3)[nH]c2n(CCC)c1=O | > 41 | 34 | < 5.30 | 30 | 6.92 | 5.38 | 5.43 |  |  |  |
| CCCn1c(=O)c2nc(-c3cnn(Cc4noc(-c5ccc(C(F)(F)F)cc5)n4)c3)[nH]c2n(CCC)c1=O | > 238 | 61 | < 5.30 | > 285 | 7.68 | 5.89 | < 5.22 |  |  |  |
| CCCn1c(=O)c2nc(-c3cnn(Cc4nc(-c5ccc(Cl)cc5)no4)c3)[nH]c2n(CCC)c1=O | 85 | 19 | 5.74 | 35 | 7.68 | 6.40 | 6.13 | 2330 | 1.5 | 22 |
| CCCn1c(=O)c2nc(-c3cnn(Cc4nc(-c5ccccc5)no4)c3)[nH]c2n(CCC)c1=O | 1100 | 480 | 5.96 | 370 | 9.00 | 6.32 | 6.43 |  |  |  |
| CCCn1c(=O)c2nc(-c3cnn(Cc4noc(-c5ccccc5OC)n4)c3)[nH]c2n(CCC)c1=O | 40 | > 100 | 5.47 | 11 | 7.08 | < 5.08 | 6.03 |  |  |  |
